Data on six molecules can be found in US20050221337A1, “Microarrays and microspheres comprising oligosaccharides, complex carbohydrates or glycoproteins” (priority 2003, published 2005).

For one data set, the target named is T1, cyanovirin-N (CVN) (Nostoc ellipsosporum, UniProt P81180).
T1 sequence (P81180 1-101): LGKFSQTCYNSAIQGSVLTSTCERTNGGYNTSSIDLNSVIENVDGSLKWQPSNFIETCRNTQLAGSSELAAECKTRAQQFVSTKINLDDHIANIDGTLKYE
Briefly: High-mannose oligosaccharide microarray incubated with BODIPY-labeled CVN, fluorescence scan. The format is binding, Nostoc elliposporum. The following applies: for BODIPY-labeled CVN fluorescence (binding) on immobilized saccharide spots: BODIPY-CVN 25 μg mL-1, 1 hour, room temperature, BSA coated slide; for CVN spot fluorescence intensity relative to nonamannoside (normalized to background): higher printed concentrations 1 mM-0.5 mM (FIG. 9). The protocol: Using the aforementioned thiol terminated linker, a series of high-mannose oligosaccharides were prepared (Scheme 6). Arrays were printed on a BSA coated slide, as above, varying the concentration of printed oligosaccharide, and blocked with 3-mercaptoproprionic acid.
It was of interest to establish whether the microarray platform may serve to probe relative affinities of CVN for the different high-mannose structures. A microarray containing the four oligosaccharide structures was prepared with carbohydrate concentrations ranging from 0.008 mM to 2 mM. […] At lower dilutions, however, this trend is reversed. This discrepancy from the isocalorimetry data can be explained by the density of covalently immobilized saccharide at saturating concentrations. We hypothesize that the size of the nonasaccharide, compared to the other structures immobilized, might sterically occlude reactive sites leading to decreased amounts of immobilized structure. As previously observed, two distinct CVN binding domains can each interact with a single α1,2-linked linear trimannoside. We reason that a higher surface concentrations of 3 permits this multivalent interaction to take place.
Functionalization of slides: SuperAldehyde slides (TeleChem International) were immersed in 50 mL phosphate buffered saline (PBS) containing 1% bovine serum albumin (BSA; w/v) and incubated overnight at room temperature. The slides were rinsed twice with distilled H2O (100 mL), twice with 95% ethanol (50 mL) and then dried under a stream of dry Ar. Thereafter the slides were immersed in 45 mL of anhydrous DMF (Aldrich) containing 65 mg succinimidyl-4-(Nmaleimidomethyl)cyclohexane-1-carboxyiate. (Pierce Chemical) and 100 mM N,N-Diisopropylethylamine (Aldrich). The slides were incubated in this solution for 24 hours at room temperature, washed 4 times with 95% ethanol (50 mL) and then stored in a vacuum dessicator until used for microarray fabrication.
Microarray fabrication: Thiol functionalized carbohydrates were incubated 1 hr at room temperature with 1 equivalent tris-(carboxyethyl)phosphine hydrochloride (TCEP) in 1×PBS, and printed on the maleimide derivitized glass slides using a MicroGrid TAS array printer. Prints were performed at 30% humidity using either a 16-pin or 32-pin format, with a spot size of 120 μm and a distance of 300 μm between the centers of adjacent spots. Thereafter, the slides were stored in a humid chamber at room temperature for 12 hours, washed 2 times with distilled H2O, and then incubated for 1 hour in 1 mM 3-mercaptopropionic acid in PBS (50 mL) to quench all remaining maleimide groups. The slides were washed three times with distilled H2O (50 mL), two times with 95% ethanol (50 mL) and then stored in a vacuum dessicator until used for binding experiments.
Detection of protein-carbohydrate interactions: In experiments involving FITC labeled ConA (Sigma), the lectin was used at 25 μg mL^−1 in 10 mM HEPES-BSA buffer (pH 7.5, 1 mM CaCl2, 1 mM MnCl2, 100 mM NaCl, 1% (w/v) BSA). In experiments involving BODIPY-labeled CVN, the CVN was used at 25 μg mL-1 in 10 mM PBS containing 1% BSA. For all incubations, 0.55 mL of protein solution was applied to the slide using a PC500 CoverWell incubation chamber (Grace BioLabs). Following a 1 hour incubation at room temperature, the slides were washed three times with 50 mL of the same buffer used in the incubation, twice with 50 mL distilled H2O and then centrifuged at 200 g for 5 minutes to ensure complete dryness. To visualize fluorescence, the slides were scanned using an ArrayWoRx fluorescence slide scanner (Applied Precision).

The next data set has as its target T2, CVN (Nostoc ellipsosporum, UniProt P81180).
T2 sequence (P81180 1-101): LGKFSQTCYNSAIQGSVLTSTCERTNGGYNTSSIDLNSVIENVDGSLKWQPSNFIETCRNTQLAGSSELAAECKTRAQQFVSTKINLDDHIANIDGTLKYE
The following applies: recent isothermocalorimetry and NMR study; read-out: Kd of CVN binding; cited from earlier work.

Another data set deals with cyanovirin N (CV-N) (Nostoc ellipsosporum, UniProt P81180). The data set can be described thus: Fiber optic microsphere array incubated with BODIPY-labeled CV-N. The format is binding. The settings on record: CV-N 50 μg mL^−1, five minutes; excitation 488 nm. The text has this:
Five synthetic carbohydrates (1,3-6) were immobilized on microspheres carrying a unique internal code for each structure. A small aliquot of each of the five dispersions was mixed together and used to microsphere array.
At five minutes the CV-N solution was removed and replaced with a fresh buffer solution. BODIPY excitation wavelength (488 nm) was passed through the optical fiber and BODIPY emission wavelengths were collected on the CCD camera. Three of the five structures (3,5,6) present were bound by CV-N in accordance with isothermal microcalorimetry studies P. H. Seeberger et al. Chemistry and Biology 2002, 9, 1109.

For data set [1], the target named is T3, Concanavalin A (ConA) (Canavalia ensiformis, UniProt P02866). The data set can be described thus: Carbohydrate microarray incubated with FITC-labeled ConA, fluorescence scan. Format: binding. The following applies: FITC-ConA 25 μg mL^−1, 1 hour, room temperature; 120 μm spots on maleimide-BSA slide. The text has this: Protein-carbohydrate interactions were examined using the mannose/glucose specific lectin Concanavalin A (ConA). Microarrays were constructed through the maleimide derivatization of BSA coated glass slides to create a thiol-reactive surface (FIG. 1). Thiol derivatized mannose and galactose were printed as 120 μm spots using a microarray printing robot. The remaining maleimide groups were subsequently quenched with a solution of 3-mercaptopropionic acid to render the slides unreactive to cysteine containing proteins. The carbohydrate microarrays were incubated with a solution of FITC-labeled ConA. The arrays were thoroughly rinsed with buffer, dried by centrifugation and scanned with a fluorescence slide scanner. […] Utilizing proteins conjugated to fluorophores of non-overlapping excitation and-emission spectra enabled facile two-color detection. […] See Bidlingmaier, S.; Synder, M. Chemistry and Biology 2002, 9, 400. […]
Detection of protein-carbohydrate interactions: In experiments involving FITC labeled ConA (Sigma), the lectin was used at 25 μg mL^−1 in 10 mM HEPES-BSA buffer (pH 7.5, 1 mM CaCl2, 1 mM MnCl2, 100 mM NaCl, 1% (w/v) BSA). […] To visualize fluorescence, the slides were scanned using an ArrayWoRx fluorescence slide scanner (Applied Precision).

Data set [2] addresses T3, Concanavalin A (ConA).
The subject of another data set is HIV strains. The following applies: natural and recombinant forms of CVN; cited from earlier work.
The next data set has as its system host cells. The settings on record: natural and recombinant forms of CVN; cited from earlier work.

By Kd is commonly meant the equilibrium constant for the complex coming apart. As for nonamannoside [compound 6], the “BODIPY-labeled CVN fluorescence (binding) on immobilized saccharide spots” value (“BODIPY-labeled CVN fluorescence” below) on cyanovirin-N (CVN) is given as “fluorescence was detected”. Further, the “CVN fluorescence signal in dilution series microarray at low printed concentrations” value at cyanovirin-N (CVN) (printed carbohydrate 0.008 mM to 2 mM (FIG. 8)) was “showed discernable fluorescence at concentrations where the signals of the other structures were unobservable”. For the same molecule, the Kd on CVN was 270 nM. For the same molecule, the “BODIPY-labeled CV-N binding to oligosaccharide-bearing beads” value (“BODIPY-labeled CV-N binding” for short) on cyanovirin N (CV-N) is “bound by CV-N”.
In the case of hexamannoside [compound 5], on cyanovirin-N (CVN), the “BODIPY-labeled CVN fluorescence” value is given as “fluorescence was detected” and the “CVN spot fluorescence intensity relative to nonamannoside (normalized to background)” value is recorded as “higher fluorescence intensities than the nonamannoside”. In addition, at cyanovirin N (CV-N), the “BODIPY-labeled CV-N binding” value is recorded as “bound by CV-N”.
Take linear trimannoside [compound 3]: at cyanovirin-N (CVN), the “BODIPY-labeled CVN fluorescence” value was “fluorescence was detected” and the “CVN spot fluorescence intensity relative to nonamannoside (normalized to background)” value is reported as “higher fluorescence intensities than the nonamannoside”. The Kd on CVN was 3480 nM. For the same molecule, on cyanovirin N (CV-N), the “BODIPY-labeled CV-N binding” value is “bound by CV-N”.
branched trimannoside [compound 4]: the “BODIPY-labeled CVN fluorescence” value at cyanovirin-N (CVN) was “no binding activity”.
On to `O=C[C@H](O)[C@@H](O)[C@@H](O)[C@H](O)CO` [compound 2, galactose], for which the “BODIPY-labeled CVN fluorescence” value at cyanovirin-N (CVN) is reported as “no binding activity”. In addition, the “FITC-labeled ConA fluorescence on immobilized saccharide spots” value at Concanavalin A (ConA) [1] is “no fluorescence”. At Concanavalin A (ConA) [2] (labeled ConA 0 to 400 μg mL^−1, very high lectin concentrations (FIG. 18)), the “fluorescence of beads in dilution series of labeled ConA” value is “no increase in fluorescence”. Moreover, the “labeled ConA binding to saccharide-bearing beads (rhodamine fluorescence)” value on Concanavalin A (ConA) [2] (labeled ConA 50 μg mL^−1, five minutes) is on record as “no ConA was observed”.

B1: CVN: HIV-inactivating 11 kDa protein from Nostoc ellipsosporum that binds high-mannose oligosaccharides of gp120 (protein, UniProt P81180 1-101, looked up)
Cyanovirin-N: LGKFSQTCYNSAIQGSVLTSTCERTNGGYNTSSIDLNSVIENVDGSLKWQPSNFIETCRNTQLAGSSELAAECKTRAQQFVSTKINLDDHIANIDGTLKYE
Regarding B1, the “inactivation of HIV strains” value with HIV strains was “irreversibly inactivate a wide variety of HIV strains”. Moreover, in the data set with host cells, the “toxicity to host cells” value is recorded as “minimal toxicity to host cells”.
